# Assay results from patent US20210300924A1, “5-[6-[[3-(4,5,6,7-TETRAHYDROPYRAZOLO[4,3-C]PYRIDIN-1-YL)AZETIDIN-1-YL]METHYL]MORPHOLIN-4-YL]QUINOLINE-8-CARBONITRILE DERIVATIVES AND SIMILAR COMPOUNDS AS TLR7-9 ANTAGONISTS FOR TREATING SYSTEMIC LUPUS ERYTHEMATOSUS” (Hoffmann-La Roche Inc., priority 2018, published 2021).
# System: not listed separately
# Test: Human microsome stability assay
# Assay type: in vitro ADME
# Details: 1 μM test compound, 0.5 mg/mL liver microsomal protein, 37° C., up to 30 minutes; 6.2 = detection limit
# Protocol: Human Microsome Stability Assay
# The human microsomal stability assay is used for early assessment of metabolic stability of a test compound in human liver microsomes.
# Human liver microsomes (Cat. NO.: 452117, Corning, USA; Cat. NO.:H2610, Xenotech, USA) were preincubated with test compound for 10 minutes at 37° C. in 100 mM potassium phosphate buffer, pH 7.4. The reactions were initiated by adding NADPH regenerating system. The final incubation mixtures contained 1 μM test compound, 0.5 mg/mL liver microsomal protein, 1 mM MgCl2, 1 mM NADP, 1 unit/mL isocitric dehydrogenase and 6 mM isocitric acid in 100 mM potassium phosphate buffer, pH 7.4. After incubation times of 0, 3, 6, 9, 15 and 30 minutes at 37° C., 300 μL of cold acetonitrile (including internal standard) was added to 100 μL incubation mixture to terminate the reaction. Following precipitation and centrifugation, the amount of compound remaining in the samples were determined by LC-MS/MS. Controls of no NADPH regenerating system at zero and 30 minutes were also prepared and analyzed.
row,Structure (SMILES),Clearance of Human microsome [mL/min/kg]
1,"C[C@@H]1CN(c2ccc(C#N)c3ncccc23)C[C@H](CN2CC(n3cc4c(n3)CN[C@@H](C)C4)C2)O1 (single isomer, unassigned) [Example 29]",6.6
2,"C[C@@H]1CN(c2ccc(C#N)c3ncccc23)C[C@H](CN2CC(n3cc4c(n3)C[C@H](C)NC4)C2)O1 [Example 19, 5-[(2R,6S)-2-methyl-6-[[3-[(6S)-6-methyl-4,5,6,7-tetrahydropyrazolo[4,3-c]pyridin-2-yl]azetidin-1-yl]methyl]morpholin-4-yl]quinoline-8-carbonitrile]",6.2
3,"C[C@@H]1CN(c2ccc(C#N)c3ncccc23)C[C@H](CN2CC(n3cc4c(n3)CCNC4)C2)O1 [Example 2, 5-[(2R,6S)-2-methyl-6-[[3-(4,5,6,7-tetrahydropyrazolo[4,3-c]pyridin-2-yl)azetidin-1-yl]methyl]morpholin-4-yl]quinoline-8-carbonitrile]",6.2

# Biological target: T1, human TLR8 (Homo sapiens, UniProt Q9NR97)
# T1 construct: host or cells: HEK293 (HEK-Blue hTLR8)
# T1 sequence (Q9NR97 27-1041): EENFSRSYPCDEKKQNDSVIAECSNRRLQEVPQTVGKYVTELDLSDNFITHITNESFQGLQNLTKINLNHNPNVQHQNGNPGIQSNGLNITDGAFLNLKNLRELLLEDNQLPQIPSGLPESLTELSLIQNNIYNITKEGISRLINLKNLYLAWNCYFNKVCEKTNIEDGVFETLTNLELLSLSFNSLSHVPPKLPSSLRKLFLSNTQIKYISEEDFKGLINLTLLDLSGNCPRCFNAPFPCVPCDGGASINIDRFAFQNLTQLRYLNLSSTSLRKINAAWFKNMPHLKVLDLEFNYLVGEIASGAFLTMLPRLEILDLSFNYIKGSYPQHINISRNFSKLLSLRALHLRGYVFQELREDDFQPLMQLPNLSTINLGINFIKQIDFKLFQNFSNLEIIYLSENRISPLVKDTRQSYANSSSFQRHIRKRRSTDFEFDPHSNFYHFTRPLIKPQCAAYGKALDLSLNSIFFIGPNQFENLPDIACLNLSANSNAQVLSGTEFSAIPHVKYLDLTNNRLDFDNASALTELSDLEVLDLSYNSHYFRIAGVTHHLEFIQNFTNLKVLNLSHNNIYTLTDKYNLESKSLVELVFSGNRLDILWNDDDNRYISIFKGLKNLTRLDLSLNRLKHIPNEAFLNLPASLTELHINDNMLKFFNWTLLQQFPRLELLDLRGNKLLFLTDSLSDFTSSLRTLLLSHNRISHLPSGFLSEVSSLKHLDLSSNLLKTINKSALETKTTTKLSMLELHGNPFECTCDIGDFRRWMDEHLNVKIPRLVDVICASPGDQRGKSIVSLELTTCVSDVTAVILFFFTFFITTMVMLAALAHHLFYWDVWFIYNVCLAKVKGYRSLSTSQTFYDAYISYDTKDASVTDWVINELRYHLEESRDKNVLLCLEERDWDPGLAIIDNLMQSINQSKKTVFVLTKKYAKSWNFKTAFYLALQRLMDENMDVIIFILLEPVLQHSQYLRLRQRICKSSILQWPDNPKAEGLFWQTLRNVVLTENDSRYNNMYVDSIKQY
# Test: HEK293-Blue-hTLR-8 cells assay
# Assay type: cell-based
# Details: HEK293-Blue-hTLR8 cells, R848 stimulation, 20 hrs, SEAP reporter; read-out: HEK/hTLR8 IC50
# Excerpt: A stable HEK293-Blue-hTLR-8 cell line was purchased from InvivoGen (Cat. #: hkb-htlr8, San Diego, Calif., USA). These cells were originally designed for studying the stimulation of human TLR8 by monitoring the activation of NF-κB. A SEAP (secreted embryonic alkaline phosphatase) reporter gene was placed under the control of the IFN-β minimal promoter fused to five NF-κB and AP-1-binding sites. The SEAP was induced by activating NF-κB and AP-1 via stimulating HEK-Blue hTLR8 cells with TLR8 ligands. Therefore the reporter expression was declined by TLR8 antagonist under the stimulation of a ligand, such as R848, for incubation of 20 hrs. The cell culture supernatant SEAP reporter activity was determined using QUANTI-Blue™ kit (Cat. #: rep-qb1, Invivogen, San Diego, Ca, USA) at a wavelength of 640 nm, a detection medium that turns purple or blue in the presence of alkaline phosphatase.
# HEK293-Blue-hTLR8 cells were incubated at a density of 250,000-450,000 cells/mL in a volume of 170 μL in a 96-well plate in Dulbecco's Modified Eagle's medium (DMEM) containing 4.5 g/L glucose, 50 U/mL penicillin, […], […], 2 mM L-glutamine, 10% (v/v) heat-inactivated fetal bovine serum with addition of 20 μL test compound in a serial dilution in the presence of final DMSO at 1% and 10 μL of 60 uM R848 in above DMEM, perform incubation under 37° C. in a CO2 incubator for 20 hrs. Then 20 μL of the supernatant from each well was incubated with […] Quanti-blue substrate solution at 37° C. for 2 hrs and the absorbance was read at 620-655 nm using a spectrophotometer. The signaling pathway that TLR8 activation leads to downstream NF-κB activation has been widely accepted, and therefore similar reporter assay was modified for evaluating TLR8 antagonist.
row,Structure (SMILES),IC50 [nM]
1,"C[C@@H]1CN(c2ccc(C#N)c3ncccc23)C[C@H](CN2CC(n3ncc4c3CNCC4)C2)O1 [Example 3, 5-[(2R,6S)-2-methyl-6-[[3-(4,5,6,7-tetrahydropyrazolo[3,4-c]pyridin-1-yl)azetidin-1-yl]methyl]morpholin-4-yl]quinoline-8-carbonitrile]",6
2,"CCN1CCc2cn(C3CN(C[C@H]4CN(c5ccc(C#N)c6ncccc56)C[C@@H](C)O4)C3)nc2C1 [Example 7, 5-[(2S,6R)-2-[[3-(6-ethyl-5,7-dihydro-4H-pyrazolo[3,4-c]pyridin-2-yl)azetidin-1-yl]methyl]-6-methyl-morpholin-4-yl]quinoline-8-carbonitrile]",5
3,"C[C@@H]1CN(c2ccc(C#N)c3ncccc23)C[C@H](CN2CC(n3cc4c(n3)CN[C@@H](C)C4)C2)O1 (single isomer, unassigned) [Example 29]",11
4,"C[C@@H]1CN(c2ccc(C#N)c3ncccc23)C[C@H](CN2CC(n3cc4c(n3)C[C@H](C)NC4)C2)O1 [Example 19, 5-[(2R,6S)-2-methyl-6-[[3-[(6S)-6-methyl-4,5,6,7-tetrahydropyrazolo[4,3-c]pyridin-2-yl]azetidin-1-yl]methyl]morpholin-4-yl]quinoline-8-carbonitrile]",22
5,"Cc1nn(C2CN(C[C@H]3CN(c4ccc(C#N)c5ncccc45)C[C@@H](C)O3)C2)c2c1CNCC2 [Example 12, 5-[(2R,6S)-2-methyl-6-[[3-(3-methyl-4,5,6,7-tetrahydropyrazolo[4,3-c]pyridin-1-yl)azetidin-1-yl]methyl]morpholin-4-yl]quinoline-8-carbonitrile]",44
6,"C[C@@H]1CN(c2ccc(C#N)c3ncccc23)C[C@H](CN2CC(n3cc4c(n3)CCNC4)C2)O1 [Example 2, 5-[(2R,6S)-2-methyl-6-[[3-(4,5,6,7-tetrahydropyrazolo[4,3-c]pyridin-2-yl)azetidin-1-yl]methyl]morpholin-4-yl]quinoline-8-carbonitrile]",19
7,"C[C@@H]1CN(c2ccc(C#N)c3ncccc23)C[C@H](CN2CC(n3ncc4c3CNC4)C2)O1 [Example 10, 5-[(2S,6R)-2-[[3-(5,6-dihydro-4H-pyrrolo[3,4-c]pyrazol-1-yl)azetidin-1-yl]methyl]-6-methyl-morpholin-4-yl]quinoline-8-carbonitrile]",19
8,"C[C@@H]1CN(c2ccc(C#N)c3ncccc23)C[C@H](CN2CC(n3ncc4c3CN[C@@H](C)C4)C2)O1 (single isomer, unassigned) [Example 27]",8
9,"C[C@@H]1CN(c2ccc(C#N)c3ncccc23)C[C@H](CN2CC(n3ncc4c3[C@H](C)NCC4)C2)O1 (single isomer, unassigned) [Example 32]",10
10,"Cc1nn(C2CN(C[C@H]3CN(c4ccc(C#N)c5ncccc45)C[C@@H](C)O3)C2)c2c1CN(C)CC2 [Example 14, 5-[(2S,6R)-2-[[3-(3,5-dimethyl-6,7-dihydro-4H-pyrazolo[4,3-c]pyridin-1-yl)azetidin-1-yl]methyl]-6-methyl-morpholin-4-yl]quinoline-8-carbonitrile]",10
11,"Cc1c2c(nn1C1CN(C[C@H]3CN(c4ccc(C#N)c5ncccc45)C[C@@H](C)O3)C1)CCN(C)C2 [Example 15, 5-[(2S,6R)-2-[[3-(3,5-dimethyl-6,7-dihydro-4H-pyrazolo[4,3-c]pyridin-2-yl)azetidin-1-yl]methyl]-6-methyl-morpholin-4-yl]quinoline-8-carbonitrile]",9
12,"C[C@@H]1CN(c2ccc(C#N)c3ncccc23)C[C@H](CN2CC(n3cc4c(n3)[C@@H](C)NCC4)C2)O1 (single isomer, unassigned) [Example 33]",13
13,"C[C@@H]1CN(c2ccc(C#N)c3ncccc23)C[C@H](CN2CC(n3cc4c(n3)[C@H](C)CNC4)C2)O1 (single isomer, unassigned) [Example 25]",11
14,"Cc1c2c(nn1C1CN(C[C@H]3CN(c4ccc(C#N)c5ncccc45)C[C@@H](C)O3)C1)CCNC2 [Example 13, 5-[(2R,6S)-2-methyl-6-[[3-(3-methyl-4,5,6,7-tetrahydropyrazolo[4,3-c]pyridin-2-yl)azetidin-1-yl]methyl]morpholin-4-yl]quinoline-8-carbonitrile]",45
15,"CCN1CCc2cnn(C3CN(C[C@H]4CN(c5ccc(C#N)c6ncccc56)C[C@@H](C)O4)C3)c2C1 [Example 6, 5-[(2S,6R)-2-[[3-(6-ethyl-5,7-dihydro-4H-pyrazolo[3,4-c]pyridin-1-yl)azetidin-1-yl]methyl]-6-methyl-morpholin-4-yl]quinoline-8-carbonitrile]",5
16,"CC(C)N1CCc2cn(C3CN(C[C@H]4CN(c5ccc(C#N)c6ncccc56)C[C@@H](C)O4)C3)nc2C1 [Example 9, 5-[(2S,6R)-2-[[3-(6-isopropyl-5,7-dihydro-4H-pyrazolo[3,4-c]pyridin-2-yl)azetidin-1-yl]methyl]-6-methyl-morpholin-4-yl]quinoline-8-carbonitrile]",7
17,"C[C@@H]1CN(c2ccc(C#N)c3ncccc23)C[C@H](CN2CC(n3cc4c(n3)C(C)(C)CNC4)C2)O1 [Example 24, 5-[(2S,6R)-2-[[3-(7,7-dimethyl-5,6-dihydro-4H-pyrazolo[4,3-c]pyridin-2-yl)azetidin-1-yl]methyl]-6-methyl-morpholin-4-yl]quinoline-8-carbonitrile]",14
18,"CC(C)N1CCc2cnn(C3CN(C[C@H]4CN(c5ccc(C#N)c6ncccc56)C[C@@H](C)O4)C3)c2C1 [Example 8, 5-[(2S,6R)-2-[[3-(6-isopropyl-5,7-dihydro-4H-pyrazolo[3,4-c]pyridin-1-yl)azetidin-1-yl]methyl]-6-methyl-morpholin-4-yl]quinoline-8-carbonitrile]",5
19,"C[C@@H]1CN(c2ccc(C#N)c3ncccc23)C[C@H](CN2CC(n3cc4c(n3)[C@@H](C)CNC4)C2)O1 (single isomer, unassigned) [Example 26]",12
20,"C[C@@H]1CN(c2ccc(C#N)c3ncccc23)C[C@H](CN2CC(n3ncc4c3[C@@H](C)NCC4)C2)O1 (single isomer, unassigned) [Example 31]",5
